Results: patent publication US20060029544A1, “Receptor-binding cyclic peptides and methods of use” (The Regents of the University of California Office of …, priority 2004, published 2006)
Like-named read-outs stand apart in the source and are kept apart here.

Experiments:
[1] = system: A375M, a human melanoma which expresses αvβ3 integrin; experiment: In vivo biodistribution in mice bearing A375M tumors; settings: mouse
Description: (§1) In vivo biodistribution studies were performed in mice using A375M, a human melanoma which expresses αvβ3 integrin. MF1 nu/nu mice were given subcutaneous injections of A375M cells into the left inguinal region. Once tumors reached 4-10 mm in size, mice (n=5 mice per time point) were injected with 50 kBq of [^18F]-C7 and sacrificed at 15, 30, and 60 minutes after injection. A second group of animals (n=3) was injected with 50 kBq of [^18F]-C7, sacrificed at 30minutes after injection, and imaged using an ECAT 951R whole body PET scanner.

[2] = system: A375M, a human melanoma which expresses αvβ3 integrin; experiment: PET imaging (ECAT 951R) of mice bearing A375M tumors; type: in vivo; settings: 30 minutes after injection
Description: as §1

αvβ5 integrin = target: T1, αvβ5 integrin (Homo sapiens, UniProt P06756+P18084); experiment: ELISA: biotinylated vitronectin binding to captured soluble αvβ5-mFc in the presence of RGD peptides
T1 construct: chimeras comprising the extracellular domain of αvβ3, αvβ5, α5β1, and αIIbβ3 linked to the Fc domain of either mouse IgG; purchased Celltech plc (supplied, no catalogue number); host or cells: unpurified hybridoma / tissue culture supernatant from secreting cells
T1 sequence (P06756 31-992 limits assumed): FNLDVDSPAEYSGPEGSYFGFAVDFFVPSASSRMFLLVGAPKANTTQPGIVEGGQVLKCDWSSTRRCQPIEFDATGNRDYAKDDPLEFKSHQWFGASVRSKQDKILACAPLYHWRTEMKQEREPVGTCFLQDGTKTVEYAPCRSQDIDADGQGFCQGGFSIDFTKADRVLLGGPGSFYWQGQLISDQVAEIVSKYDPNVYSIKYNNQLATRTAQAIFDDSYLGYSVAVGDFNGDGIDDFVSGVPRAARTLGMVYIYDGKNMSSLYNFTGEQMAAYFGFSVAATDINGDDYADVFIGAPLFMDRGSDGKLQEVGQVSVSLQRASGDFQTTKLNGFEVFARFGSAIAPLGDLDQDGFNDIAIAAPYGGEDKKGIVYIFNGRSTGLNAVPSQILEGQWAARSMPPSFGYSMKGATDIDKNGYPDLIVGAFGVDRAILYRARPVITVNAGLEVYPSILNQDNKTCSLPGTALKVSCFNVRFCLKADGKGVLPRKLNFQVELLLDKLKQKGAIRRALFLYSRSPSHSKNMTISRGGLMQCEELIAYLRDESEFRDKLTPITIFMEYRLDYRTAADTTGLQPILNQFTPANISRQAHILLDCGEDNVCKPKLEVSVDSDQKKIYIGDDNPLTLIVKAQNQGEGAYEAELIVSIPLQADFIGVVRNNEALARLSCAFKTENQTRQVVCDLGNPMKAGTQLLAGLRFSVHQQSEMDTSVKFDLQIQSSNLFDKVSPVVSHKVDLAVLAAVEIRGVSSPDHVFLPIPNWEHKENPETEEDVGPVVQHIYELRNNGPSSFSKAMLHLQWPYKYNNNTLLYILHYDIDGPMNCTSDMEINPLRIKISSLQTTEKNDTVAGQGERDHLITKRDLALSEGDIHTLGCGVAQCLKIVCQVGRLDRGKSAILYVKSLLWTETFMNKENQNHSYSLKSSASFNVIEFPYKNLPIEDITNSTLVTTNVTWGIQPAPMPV
T1 sequence (P18084 24-719 limits assumed): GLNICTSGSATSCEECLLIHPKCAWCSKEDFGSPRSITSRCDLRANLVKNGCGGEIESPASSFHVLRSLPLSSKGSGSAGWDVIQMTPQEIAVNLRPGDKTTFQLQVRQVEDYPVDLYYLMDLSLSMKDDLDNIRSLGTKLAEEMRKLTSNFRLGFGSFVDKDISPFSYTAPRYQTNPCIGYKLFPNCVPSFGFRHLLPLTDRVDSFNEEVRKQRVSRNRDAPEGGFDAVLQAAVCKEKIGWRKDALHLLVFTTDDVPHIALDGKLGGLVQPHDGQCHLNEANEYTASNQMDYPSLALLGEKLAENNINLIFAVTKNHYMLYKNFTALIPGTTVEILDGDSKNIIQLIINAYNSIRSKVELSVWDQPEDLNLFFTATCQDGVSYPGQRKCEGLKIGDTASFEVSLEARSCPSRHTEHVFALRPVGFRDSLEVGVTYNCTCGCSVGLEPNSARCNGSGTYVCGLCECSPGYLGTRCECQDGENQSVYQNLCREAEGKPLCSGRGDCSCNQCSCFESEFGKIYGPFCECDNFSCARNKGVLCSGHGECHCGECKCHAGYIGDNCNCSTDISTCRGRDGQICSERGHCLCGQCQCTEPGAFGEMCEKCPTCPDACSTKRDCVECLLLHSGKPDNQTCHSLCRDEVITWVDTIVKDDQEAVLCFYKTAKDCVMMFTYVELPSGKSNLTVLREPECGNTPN
Description: (§2) Four different soluble integrins were supplied by Celltech plc. Soluble forms of αvβ3, αvβ5, α5β1, and αIIbβ3 integrin were generated by constructing chimeras comprising the extracellular domain of αvβ3, αvβ5, α5β1, and αIIbβ3 linked to the Fc domain of either mouse IgG (αvβ3-mFc, αvβ5-mFc, and αIIbβ3-mFc) or human IgG (α5β1-hFc) as described by Stephens et al., Cell Adhes. Commun., 7:377-390 (2000) and Coe et al., J. Biol. Chem., 276:35854-35866 (2001). Since the four soluble integrin chimeras were supplied either as purified proteins (αvβ3-mFc and α5β1-hFc) or as unpurified hybridoma supernatants (αIIbβ3-mFc and αvβ5-mFc), it was necessary to use two types of ELISAs. […] In one type of ELISA (FIGS. 2A and 2B), the immobilized component is a 50 kDa fragment of fibronectin. In the second type of ELISA (FIGS. 2C and 2D), the immobilized component is a goat anti-mFc antibody that is used to capture chimeric proteins so that the RGD binding site of the integrin is maximally exposed. Each three-sided box in FIG. 2 represents a single well of a 96-well plate, and the components are listed in the sequence of their addition to the assay. The immobilized component at the bottom of the well is bound to the well by electrostatic interactions.
To analyze the affinity and selectively of RGD peptides for αIIbβ3 and αvβ5, 96-well ELISA plates were coated with anti-murine Fc antibody at 5 μg/ml in PBS, 100 μl per well and left overnight at 4° C. The plates were washed with PBS using a Denley Wellwash 4 Mk 2. Washing was repeated twice with a 400 μl wash per well. 200 μl/well of blocking buffer was then added for 1 hour followed by a repeat washing with PBS. 100 μl of tissue culture supernatant from cells secreting soluble αIIbβ3-mFc or αvβ5-mFc, diluted 1:2 in conjugate buffer, was added to each well. Plates were incubated with shaking for 1 hour followed by two washes with PBS. 100 μl of an RGD peptide (at concentrations of 200, 20, and 2 μM), followed by either 100 μl of biotinylated fibrinogen (at 1 μg/ml in conjugate buffer) or 100 μl of biotinylated vitronectin (at 2 μg/ml in conjugate buffer) were added to each well and incubated for 2 hours with shaking. After incubation, the plates were washed with PBS as described above. 100 μl of neutravidin-peroxidase was added to each well and the plates were incubated for 30 minutes with shaking, followed by two washes with PBS. 100 μl of TMB substrate was added to each well and the plates were shaken during color development. Plates were read using a plate spectrophotometer at 630 nm.
(§3) Two negative and two positive controls were used in both types of ELISAs. For example, the negative controls were wells that contained 50 μl of an active control peptide, integrin, and biotinylated ligand or 50 μl of the active control peptide and 50 μl of buffer. These negative control wells typically develop little to no color. […] These wells typically develop the maximum amount of color.
(§4) FIGS. 3-6 illustrate the percent binding of the vitronectin, fibronectin, or fibrinogen ligand to αvβ5, α5β1, αIIbβ3, or αvβ3 integrin in the presence of RGD peptides (i.e., linear (A), cyclic (B), or 4-[^19F]-fluorobenzoyl cyclic (C)) at different concentrations, with 100% maximum signal being the signal obtained in the absence of the peptide.

α5β1 integrin = target: T2, α5β1 integrin (Homo sapiens, UniProt P05556+P08648); experiment: ELISA: soluble α5β1-hFc binding to immobilized 50 kDa fibronectin fragment in the presence of RGD peptides
T2 construct: chimeras comprising the extracellular domain of αvβ3, αvβ5, α5β1, and αIIbβ3 linked to the Fc domain of either mouse IgG; purchased Celltech plc (supplied, no catalogue number)
T2 sequence (P08648 42-995 limits assumed): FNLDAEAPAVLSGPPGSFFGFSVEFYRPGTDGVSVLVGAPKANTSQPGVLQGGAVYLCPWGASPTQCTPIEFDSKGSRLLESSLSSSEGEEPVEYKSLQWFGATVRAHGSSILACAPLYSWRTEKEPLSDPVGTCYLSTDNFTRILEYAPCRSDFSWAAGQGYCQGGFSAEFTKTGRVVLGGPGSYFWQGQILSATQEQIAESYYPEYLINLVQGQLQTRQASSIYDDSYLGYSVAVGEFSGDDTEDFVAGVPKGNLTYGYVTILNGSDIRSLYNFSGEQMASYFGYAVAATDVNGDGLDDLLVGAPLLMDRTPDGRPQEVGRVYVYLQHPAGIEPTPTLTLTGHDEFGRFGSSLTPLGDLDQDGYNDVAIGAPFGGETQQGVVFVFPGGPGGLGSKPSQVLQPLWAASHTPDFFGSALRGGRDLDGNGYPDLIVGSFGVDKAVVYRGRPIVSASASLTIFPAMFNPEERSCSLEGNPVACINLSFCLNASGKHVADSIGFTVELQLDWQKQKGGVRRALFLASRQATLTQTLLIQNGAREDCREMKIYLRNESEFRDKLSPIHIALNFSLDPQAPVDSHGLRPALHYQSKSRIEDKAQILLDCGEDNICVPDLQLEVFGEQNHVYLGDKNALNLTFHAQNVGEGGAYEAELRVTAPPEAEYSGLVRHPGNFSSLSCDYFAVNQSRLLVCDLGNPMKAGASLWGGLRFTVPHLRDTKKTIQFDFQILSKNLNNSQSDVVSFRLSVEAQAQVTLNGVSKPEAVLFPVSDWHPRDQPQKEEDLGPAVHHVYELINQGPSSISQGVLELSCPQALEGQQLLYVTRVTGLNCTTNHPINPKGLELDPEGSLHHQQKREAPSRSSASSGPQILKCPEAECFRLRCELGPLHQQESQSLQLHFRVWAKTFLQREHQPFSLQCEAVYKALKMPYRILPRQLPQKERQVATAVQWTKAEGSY
T2 sequence (P05556 21-728 limits assumed): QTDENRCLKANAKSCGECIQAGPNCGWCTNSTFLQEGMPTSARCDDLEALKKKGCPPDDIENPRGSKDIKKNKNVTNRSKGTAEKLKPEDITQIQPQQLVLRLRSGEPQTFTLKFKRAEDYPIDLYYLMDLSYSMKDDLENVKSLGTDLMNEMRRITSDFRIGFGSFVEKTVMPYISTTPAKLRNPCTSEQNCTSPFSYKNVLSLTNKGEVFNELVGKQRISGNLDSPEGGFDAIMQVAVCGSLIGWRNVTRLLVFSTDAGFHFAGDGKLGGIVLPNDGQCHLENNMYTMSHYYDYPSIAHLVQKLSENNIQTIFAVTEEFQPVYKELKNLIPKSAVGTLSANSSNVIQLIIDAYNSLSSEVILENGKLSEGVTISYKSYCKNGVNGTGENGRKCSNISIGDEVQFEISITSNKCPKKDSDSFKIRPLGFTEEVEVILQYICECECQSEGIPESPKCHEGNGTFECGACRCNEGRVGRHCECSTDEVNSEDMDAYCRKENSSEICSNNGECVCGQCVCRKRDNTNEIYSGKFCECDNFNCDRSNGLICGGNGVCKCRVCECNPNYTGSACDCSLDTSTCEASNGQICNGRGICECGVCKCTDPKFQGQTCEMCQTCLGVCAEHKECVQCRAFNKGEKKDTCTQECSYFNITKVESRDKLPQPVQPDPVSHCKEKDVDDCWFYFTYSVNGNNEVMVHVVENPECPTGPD
Description: as §2
To analyze the affinity and selectively of RGD peptides for αvβ3 and α5β1, 96-well ELISA plates were coated with 100 μl of a 5 μg/ml of the 50 kDa fragment of fibronectin in PBS per well and left overnight at 4° C. The plates were washed with PBS using a Denley Wellwash 4 Mk 2. Washing was repeated twice with a 400 μl wash per well. 200 μ/well of blocking buffer (i.e., to prevent non-specific binding of proteins) was then added for 1 hour followed by a repeat washing with PBS. RGD peptides were then added at a maximum concentration of 200 μM and a preliminary screen was performed at three concentrations, 200,20, and 2 μM. 100 μl of an RGD peptide was added to each well and each assay was performed in triplicate. Purified soluble αvβ3-mFc or purified α5β1-hFc was diluted to 2 μg/ml and 15 ng/ml, respectively, in conjugate buffer and 100 μl was added to each well. The plates were incubated for 2 hours with shaking using a Luckham R100 Rotatest at approximately 150 rpm. After incubation, the plates were washed with PBS as previously described and a labeled antibody was added. For the αvβ3 assay, a horseradish peroxidase (HRP)-labeled F(ab′)2 fragment of goat anti-mouse IgG Fc was diluted 1:2000 in conjugate buffer and 100 μl was added to each well. For the α5β1 assay, an HRP-labeled F(ab′)2 fragment of goat anti-human IgG Fc was diluted 1:2000 in conjugate buffer and 100 μl was added to each well. Plates were incubated for 30 minutes with shaking followed by 2 washes with PBS. 100 μl of TMB substrate was added to each well and plates were shaken during a 10 minute color development. Plates were read using a plate spectrophotometer at 630 nm.
as §3, §4

αIIbβ3 integrin = target: T3, αIIbβ3 integrin (Homo sapiens, UniProt P05106+P08514); experiment: ELISA: biotinylated fibrinogen binding to captured soluble αIIbβ3-mFc in the presence of RGD peptides
T3 construct: chimeras comprising the extracellular domain of αvβ3, αvβ5, α5β1, and αIIbβ3 linked to the Fc domain of either mouse IgG; purchased Celltech plc (supplied, no catalogue number); host or cells: unpurified hybridoma / tissue culture supernatant from secreting cells
T3 sequence (P08514 32-993 limits assumed): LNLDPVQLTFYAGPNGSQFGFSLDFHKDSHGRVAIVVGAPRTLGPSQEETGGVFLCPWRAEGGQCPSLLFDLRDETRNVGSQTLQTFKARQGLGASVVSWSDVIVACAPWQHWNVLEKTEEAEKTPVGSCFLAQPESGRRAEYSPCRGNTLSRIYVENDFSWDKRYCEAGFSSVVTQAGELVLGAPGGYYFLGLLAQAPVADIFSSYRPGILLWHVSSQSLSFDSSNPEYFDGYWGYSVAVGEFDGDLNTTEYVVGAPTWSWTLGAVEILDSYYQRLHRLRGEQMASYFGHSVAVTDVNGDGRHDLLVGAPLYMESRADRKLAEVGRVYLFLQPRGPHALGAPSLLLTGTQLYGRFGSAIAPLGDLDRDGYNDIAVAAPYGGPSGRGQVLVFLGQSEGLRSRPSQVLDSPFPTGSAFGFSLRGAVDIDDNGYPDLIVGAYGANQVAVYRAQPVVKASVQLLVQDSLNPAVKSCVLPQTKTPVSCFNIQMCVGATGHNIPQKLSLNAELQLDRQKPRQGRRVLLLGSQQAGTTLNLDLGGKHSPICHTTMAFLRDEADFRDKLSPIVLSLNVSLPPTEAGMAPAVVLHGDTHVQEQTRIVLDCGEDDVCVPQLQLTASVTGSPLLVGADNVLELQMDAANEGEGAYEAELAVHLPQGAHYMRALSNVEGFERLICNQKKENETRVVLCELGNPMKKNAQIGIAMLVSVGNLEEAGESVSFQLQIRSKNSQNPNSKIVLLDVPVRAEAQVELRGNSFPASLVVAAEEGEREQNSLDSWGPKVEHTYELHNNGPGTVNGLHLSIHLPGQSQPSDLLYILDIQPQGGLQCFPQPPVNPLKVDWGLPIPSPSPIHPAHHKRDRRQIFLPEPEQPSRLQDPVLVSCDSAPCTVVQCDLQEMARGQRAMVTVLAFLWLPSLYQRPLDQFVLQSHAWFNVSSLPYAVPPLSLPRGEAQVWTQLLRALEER
T3 sequence (P05106 27-718 limits assumed): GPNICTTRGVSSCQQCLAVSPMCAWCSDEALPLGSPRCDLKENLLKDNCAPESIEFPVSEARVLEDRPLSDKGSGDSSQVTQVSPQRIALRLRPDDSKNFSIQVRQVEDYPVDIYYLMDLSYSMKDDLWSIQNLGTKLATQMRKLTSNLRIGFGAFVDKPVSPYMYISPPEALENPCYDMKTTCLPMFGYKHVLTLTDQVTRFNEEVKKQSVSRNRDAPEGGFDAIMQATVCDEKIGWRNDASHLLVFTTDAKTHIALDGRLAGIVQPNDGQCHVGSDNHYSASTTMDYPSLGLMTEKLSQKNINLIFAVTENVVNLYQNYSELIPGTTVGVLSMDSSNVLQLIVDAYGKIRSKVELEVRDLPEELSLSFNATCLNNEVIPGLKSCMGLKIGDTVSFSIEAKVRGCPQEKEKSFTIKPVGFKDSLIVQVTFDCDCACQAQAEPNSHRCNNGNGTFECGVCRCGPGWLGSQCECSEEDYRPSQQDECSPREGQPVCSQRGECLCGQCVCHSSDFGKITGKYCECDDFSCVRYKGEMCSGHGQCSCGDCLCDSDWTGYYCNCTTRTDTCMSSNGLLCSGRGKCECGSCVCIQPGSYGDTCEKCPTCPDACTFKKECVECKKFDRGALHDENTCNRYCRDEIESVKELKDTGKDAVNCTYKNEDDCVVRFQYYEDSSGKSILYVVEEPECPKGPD
Description: as §2
The plates were washed with PBS using a Denley Wellwash 4 Mk 2. Washing was repeated twice with a 400 μl wash per well. 200 μl/well of blocking buffer was then added for 1 hour followed by a repeat washing with PBS. 100 μl of tissue culture supernatant from cells secreting soluble αIIbβ3-mFc or αvβ5-mFc, diluted 1:2 in conjugate buffer, was added to each well. […] After incubation, the plates were washed with PBS as described above. 100 μl of neutravidin-peroxidase was added to each well and the plates were incubated for 30 minutes with shaking, followed by two washes with PBS. 100 μl of TMB substrate was added to each well and the plates were shaken during color development. Plates were read using a plate spectrophotometer at 630 nm.
(§5) Two negative and two positive controls were used in both types of ELISAs.
as §4

αvβ3 integrin = target: T4, αvβ3 integrin (Homo sapiens, UniProt P05106+P06756); experiment: ELISA: soluble αvβ3-mFc binding to immobilized 50 kDa fibronectin fragment in the presence of RGD peptides; settings: Table 2, no unit printed (b200 gives same values in μM)
T4 construct: chimeras comprising the extracellular domain of αvβ3, αvβ5, α5β1, and αIIbβ3 linked to the Fc domain of either mouse IgG; purchased Celltech plc (supplied, no catalogue number)
T4 sequence (P06756 31-992 limits assumed): as the sequence (P06756 31-992 limits assumed) above
T4 sequence (P05106 27-718 limits assumed): as the sequence (P05106 27-718 limits assumed) above
Description: as §2
The plates were washed with PBS using a Denley Wellwash 4 Mk 2. Washing was repeated twice with a 400 μl wash per well. […] Plates were read using a plate spectrophotometer at 630 nm.
as §5, §4

4-[^18F]-fluorobenzoyl cyclic (RGDY(OMe)K) [[^18F]-C7]
tumor to organ ratio, heart [1]: 5.83
tumor to organ ratio, lung [1]: 2.33
tumor to organ ratio, muscle [1]: 11.67
tumor to organ ratio, skin [1]: 1.6
uptake in PET images [2]: distinct areas of [^18F]-C7 uptake in the lower region of the mouse

COc1ccc(C[C@@H]2NC(=O)[C@H](CC(=O)O)NC(=O)CNC(=O)[C@H](CCCNC(=N)N)NC(=O)[C@H](CCCCNC(=O)c3ccc(F)cc3)NC2=O)cc1 [C7, 4-[^19F]-fluorobenzoyl cyclic (RGDY(OMe)K)]
vitronectin binding to αvβ5, % of the maximum signal (αvβ5 integrin; 2 μM peptide, 100% = signal without peptide): 26.1%
IC50 (αvβ5 integrin; text b200, read-out: IC50 for αvβ5): 1.69 µM
fibronectin binding to α5β1, % of the maximum signal (α5β1 integrin; 2 μM peptide): 47%
IC50 (α5β1 integrin; text b200, read-out: IC50 for α5β1): 0.481 µM

N=C(N)NCCC[C@@H]1NC(=O)[C@H](CCCCNC(=O)c2ccc(F)cc2)NC(=O)[C@@H](Cc2ccccc2)NC(=O)[C@H](CC(=O)O)NC(=O)CNC1=O [C10]
IC50 (αvβ5 integrin; Table 2, no unit printed (b200 gives same values in μM), read-out: Mean IC50, αvβ5): 6.01 µM
IC50 (α5β1 integrin; Table 2, no unit printed (b200 gives same values in μM), read-out: Mean IC50, α5β1): 1.37 µM
fibrinogen binding to αIIbβ3 (αIIbβ3 integrin; 200 nM peptide): 42.1%
fibrinogen binding to αIIbβ3, % of the maximum signal (αIIbβ3 integrin; 2 μM peptide): 21.9%
IC50 (αIIbβ3 integrin; Table 2, no unit printed (b200 gives same values in μM)): 1.23 µM
IC50 (αvβ3 integrin): 0.018 µM
